Experimental data from paper PMC3405817 (Evidence-based Complementary and Alternative Medicine : eCAM, 2012).
In brackets after ≈: the same amount, converted by molar mass.

What was measured:
[1] = Cell viability assay (trypan blue), BHK-21 cells; settings: hamster, CC50 BHK-21, BHK-21 cells, trypan blue staining
BHK-21 cells = assay: Cell viability assay (trypan blue), BHK-21 cells; settings: BHK-21 cells, 48 hours, trypan blue staining
[2] = system: human promonocytic HL-CZ cells; assay: Cell viability assay (trypan blue), HL-CZ cells; settings: 48 hours, trypan blue staining
JEV [3] = assay: Virus attachment assay (4°C, BHK-21 monolayer); assay type: cell-based; settings: Japanese encephalitis virus; JEV 120 pfu, 4°C 1 h on BHK-21 monolayer, residual infectivity by plaque assay
Experimental: After 3-day incubation at 37°C in a 5% CO2 incubator, plaques were stained, as described in plaque assay.

[4] = system: virulent JEV strain Beijing-1; assay: Mouse protection assay against lethal JEV challenge; assay type: in vivo; settings: BALB/c mice, i.c. JEV 1 × 10^5 pfu, 1 mg/kg i.c. at 2, 24, 48 h after infection
Experimental: Groups (n = 10) of 2-week-old BALB/c mice were intracerebrally infected with 1 × 10^5 pfu of virulent JEV strain Beijing-1 then underwent three intracerebral treatments with 30 μg/100 μL of I. indigotica extract or marker compound (1 mg/kg of body weight) using 100 μL syringes at 2, 24, and 48 h after infection. Two additional groups were infected with JEV and received PBS or DMSO (0.05%) treatment as solvent controls. Survival rates were monitored every day for one week.

JEV [5] = assay: Virucidal activity assay; assay type: cell-based; settings: Japanese encephalitis virus; JEV 10^5 pfu preincubated 60 min at 4°C, 1000-fold dilution, residual infectivity on BHK-21
Experimental: Virucidal assay was based on prior reports. […] A 1000-fold dilution of each extract/virus or compound/virus mixture was added onto BHK-21 cell monolayer in 6-well plates.

[6] = Cell viability assay (trypan blue), HL-CZ cells; settings: human, CC50 HL-CZ, trypan blue staining
JEV [7] = assay: Plaque reduction and time-of-addition assay in BHK-21 cells; settings: Japanese encephalitis virus
JEV [8] = assay: Virus yield in JEV-infected HL-CZ cells by plaque assay; settings: 10 μg/mL, JEV MOI 0.5, after 24 h incubation
[9] = BHK-21, 1 h, read-out: IC50 of posttreatment
[10] = BHK-21, 1 h, read-out: IC50 of simultaneous treatment
[11] = BHK-21, read-out: IC50 of pretreatment

In the case of `C=C(C)[C@@H]1CC[C@]2(CO)CC[C@]3(C)[C@H](CC[C@@H]4[C@@]5(C)CC[C@H](O)C(C)(C)[C@@H]5CC[C@]43C)[C@@H]12` [Betulin, betulin], the CC50 at 48 h [1] is reported as less than 25 µg/mL, the “CC50 BHK-21” value (BHK-21 cells) is reported as 13.30 ± 2.58 µg/mL (≈ 30 µM) and the “CC50 HL-CZ” value [2] is reported as 2.10 ± 0.78 µg/mL (≈ 4.74 µM).
With `O=C1/C(=C2\Nc3ccccc3C2=O)Nc2ccccc21` [Indigo, indigo] the “CC50 BHK-21” value (BHK-21 cells) was 86.88 ± 3.72 µg/mL (≈ 331 µM), the “CC50 BHK-21” value (BHK-21 cells; listed as indigo) was 26.88 µg/mL (≈ 102 µM) and the IC50 (JEV [3]) was 5.15 ± 0.18 µg/mL (≈ 19.6 µM). The “Survival rate on Day 6 after infection” value [4] was 50%, the IC50 (JEV [5]) was 3.03 ± 3.18 µg/mL (≈ 11.6 µM) and the CC50 at 48 h [6] was 99.41 ± 0.54 µg/mL (≈ 379 µM). The IC50 (JEV [7]; [9]) was greater than 50 µg/mL, the IC50 (JEV [7]; [10]) was 37.5 ± 3.18 µg/mL (≈ 143 µM) and the IC50 (JEV [7]; [11]) was 11.79 ± 0.1 µg/mL (≈ 45 µM). The virus yield reduced (JEV [8]) was “approximately 40%”.
With `O=C1c2ccccc2-n2c1nc1ccccc1c2=O` [Tryptathrin, tryptanthrin] the “CC50 BHK-21” value (BHK-21 cells) was 4.57 ± 0.26 µg/mL (≈ 18.4 µM) and the “CC50 HL-CZ” value [2] was 1.74 ± 0.34 µg/mL (≈ 7.01 µM).
In the case of `O=C1Nc2ccccc2/C1=C1/Nc2ccccc2C1=O` [Indirubin, indirubin], the CC50 at 48 h [1] is reported as 57.5 µg/mL (≈ 219 µM), the “CC50 BHK-21” value (BHK-21 cells) is reported as greater than 100 µg/mL and the IC50 (JEV [3]) is reported as 5.1 ± 1.32 µg/mL (≈ 19.4 µM). The “Survival rate on Day 6 after infection” value [4] was 70%, the IC50 (JEV [5]) was 0.47 ± 2.83 µg/mL (≈ 1.79 µM) and the CC50 at 48 h [6] was 64.9 ± 1.08 µg/mL (≈ 247 µM). For the same compound, the IC50 (JEV [7]; [9]) was greater than 50 µg/mL, the IC50 (JEV [7]; [10]) was 13.7 ± 2.83 µg/mL (≈ 52.2 µM) and the IC50 (JEV [7]; [11]) was 23.5 ± 0.89 µg/mL (≈ 89.6 µM). For the same compound, the virus yield reduced (JEV [8]) was “approximately 40%”.
For `Nc1ncnc2c1ncn2[C@@H]1O[C@H](CO)[C@@H](O)[C@H]1O` [Adenosine, adenosine], the CC50 at 48 h [1] was less than 25 µg/mL, the “CC50 BHK-21” value (BHK-21 cells) was 24.10 ± 2.57 µg/mL (≈ 90.2 µM) and the CC50 at 48 h [6] was less than 25 µg/mL. The “CC50 HL-CZ” value [2] was 15.38 ± 1.05 µg/mL (≈ 57.6 µM).
For `O=c1[nH]c2ccccc2o1` [2-Benzoxazolinone, 2-benzoxazolinone], the CC50 at 48 h [1] was less than 25 µg/mL, the “CC50 BHK-21” value (BHK-21 cells) was 19.92 ± 1.57 µg/mL (≈ 147 µM) and the “CC50 HL-CZ” value [2] was 67.33 ± 10.2 µg/mL (≈ 498 µM).
In the case of `C=C(C)[C@@H]1CC[C@]2(C)CC[C@]3(C)[C@H](CC[C@@H]4[C@@]5(C)CC[C@H](O)C(C)(C)[C@@H]5CC[C@]43C)[C@@H]12` [Lupeol, lupeol], the “CC50 BHK-21” value (BHK-21 cells) is reported as 9.53 ± 1.32 µg/mL (≈ 22.3 µM) and the “CC50 HL-CZ” value [2] is reported as 3.44 ± 1.17 µg/mL (≈ 8.06 µM).
